Source: patent US20170290774A1, “NEUROKININ-1 RECEPTOR ANTAGONIST COMPOSITION FOR TREATMENT OF DISEASES AND CONDITIONS OF THE RESPIRATORY TRACT” (PLUS VITECH, S.L., priority 2014, published 2017)

Tested on: TGFβ2
Test: Immunohistochemistry of TGFβ2 in respiratory tract tissue of sodium hypochlorite aerosol-treated rabbits
Assay type: in vivo, New Zealand albino rabbits
Source text: It is known that the factors TGF-α, TGF-β 1, TGF-β 2, TGF-β 3, SPARC, MMP-3; MMP-7, MMP-9, MMP-11, MMP-13 and MMP-14, TGF-β, NF-kB, EGF, MMP-9, VEGF and TNF-α which are produced by lung cells (pneumocytes, fibroblasts and vascular endothelial cells) and inflammatory cells (macrophages, lymphocytes and polymorphonuclear leukocytes) are involved in the pathophysiology and development of said respiratory tract diseases. […] Herein, 27 New Zealand albino rabbits (New Zealand White Rabbit) with an initial average weight about 3 kg were used in this example. All subjects were administered an aerosol of a solution consisting of a mixture of water and sodium hypochlorite (35 g sodium hypochlorite per liter of water) at a rate of 5 mL of said solution by inhalation three times a day for 7 days (days 1 to 7 of experimentation). Subsequently, from days 3 to 7, a group of 3 rabbits (Group 1) was administered an oral dose of 10 mg/kg body weight per day, another group of 3 rabbits (Group 2) was administered an oral dose of 40 mg/kg body weight per day, a third group (Group 3) was administered an oral dose of 80 mg/kg body weight per day and a fourth group (Group 4) was administered an oral dose of 100 mg/kg body weight per day. […] This mixture was administered as an aerosol by inhalation, also from days 3 to 7, to a group of 3 rabbits (group 5) at a dose of 0.05 mg/kg body weight per day, to another group of three rabbits (Group 6) at a dose of 0.1 mg/kg body weight per day, to another group of three rabbits (Group 7) at a dose of 0.2 mg/kg body weight per day and to another group of three rabbits (Group 8) at a dose of 0.4 mg/kg body weight per day. A placebo consisting only of olive oil was administered from days 3 to 7 to a control group of 3 rabbits (placebo group). In parallel, 3 rabbits were kept under identical conditions but were not administered any treatment nor the aforementioned sodium hypochlorite solution (control group). […] On day 7 of the experiment all animals were euthanized and necropsied. […] Samples were taken at the peripheral level of the lung parenchyma, just below the pleural surface. Tissue samples were also taken from the nasal cavity, pharynx, larynx and bronchi. Immunohistochemistry studies were performed for all samples to evaluate the levels of the markers TGF-α, TGF-β 1, TGF-β 2, TGF-β 3 SPARC, MMP-3; MMP-7, MMP-9, MMP-11, MMP-14, TGF-β, TNF-α and VEGF. In said immunohistochemistry studies, a sample of each sample was dehydrated by treatment with increasing concentrations of ethanol and finally xylene. Subsequently said dried samples were embedded in paraffin, thus creating a block. Said paraffin blocks were cut on a microtome to a thickness of 5 μm, and the resulting sections (slices) were placed on slides suitable for conducting immunohistochemistry techniques. Subsequently, the sections were deparaffinised by immersion in xylene and then rehydrated through immersion in a series of solutions containing decreasing concentrations of ethanol and, finally, water. […] The samples were then allowed to cool to room temperature over 10 minutes. Endogenous peroxidase activity was blocked by treatment with 3% hydrogen peroxide over 30 min at room temperature. […] In order to verify the expression of NK1 receptors, the cell samples were incubated in the presence of anti-NK1 antibodies ([…], Sigma-Aldrich) diluted 1:1000 at 4° C. overnight. After this time they were washed in 0.05M Tris buffer at room temperature. Subsequently, Envision System-HRP (Dako) reagents were added for 30 min at room temperature. Once this time had expired, the samples were again washed with 0.05 M Tris buffer, and immunoreactivity was visualized by light microscopy with a chromogenic solution with 3,3'-diaminobenzidine (DAB+; Dako, USA). In order to differentiate the cell nuclei, these were lightly stained with haematoxylin. Samples that were not incubated with the primary antibody, but wherein this was replaced by a non-immune serum were used as negative controls. […]

SMILES: C[C@@H](OC1OCCN(Cc2nc(=O)[nH][nH]2)C1c1ccc(F)cc1)c1cc(C(F)(F)F)cc(C(F)(F)F)c1 (stereo in doubt) [Aprepitant, 5-([(2R,3S)-2-((R)-1-[3,5-bis(trifluoromethyl)phenyl]ethoxy)-3-(4-fluorophenyl)morpholino]methyl)-1H-1,2,4-triazol-3(2H)-one]
- Percent increase in TGFβ2 with respect to the control group (bronchial tissue, Group 1, oral 10 mg/kg per day): 1,342.12%
- Percent increase in TGFβ2 with respect to the control group (bronchial tissue, Group 2, oral 40 mg/kg per day): 1,008.32%
- Percent increase in TGFβ2 with respect to the control group (bronchial tissue, Group 3, oral 80 mg/kg per day): 878.34%
- Percent increase in TGFβ2 with respect to the control group (bronchial tissue, Group 4, oral 100 mg/kg per day): 457.45%
- % Med G5/C: percent increase in marker TGFβ2 with respect to the control group (bronchial tissue, Group 5): 1,209.34%
- % Med G6/C: percent increase in marker TGFβ2 with respect to the control group (bronchial tissue, Group 6): 878.45%
- % Med G7/C: percent increase in marker TGFβ2 with respect to the control group (bronchial tissue, Group 7): 328.45%
- % Med G8/C: percent increase in marker TGFβ2 with respect to the control group (bronchial tissue, Group 8): 126.45%
- Percent increase in TGFβ2 with respect to the control group (laryngeal tissue, Group 1, oral 10 mg/kg per day): 1,789.56%
- Percent increase in TGFβ2 with respect to the control group (laryngeal tissue, Group 2, oral 40 mg/kg per day): 1,398.89%
- Percent increase in TGFβ2 with respect to the control group (laryngeal tissue, Group 3, oral 80 mg/kg per day): 989.89%
- Percent increase in TGFβ2 with respect to the control group (laryngeal tissue, Group 4, oral 100 mg/kg per day): 816.89%
- Percent increase in TGFβ2 with respect to the control group (laryngeal tissue, Group 5, inhalation 0.05 mg/kg per day): 1,506.89%
- Percent increase in TGFβ2 with respect to the control group (laryngeal tissue, Group 6, inhalation 0.1 mg/kg per day): 996.89%
- Percent increase in TGFβ2 with respect to the control group (laryngeal tissue, Group 7, inhalation 0.2 mg/kg per day): 560.38%
- Percent increase in TGFβ2 with respect to the control group (laryngeal tissue, Group 8, inhalation 0.4 mg/kg per day): 120.23%
- Percent increase in TGFβ2 with respect to the control group (lung tissue, Group 1, oral 10 mg/kg per day): 775.23%
- Percent increase in TGFβ2 with respect to the control group (lung tissue, Group 2, oral 40 mg/kg per day): 582.05%
- Percent increase in TGFβ2 with respect to the control group (lung tissue, Group 3, oral 80 mg/kg per day): 475.25%
- Percent increase in TGFβ2 with respect to the control group (lung tissue, Group 4, oral 100 mg/kg per day): 438.55%
- Percent increase in TGFβ2 with respect to the control group (lung tissue, Group 5, inhalation 0.05 mg/kg per day): 797.78%
- Percent increase in TGFβ2 with respect to the control group (lung tissue, Group 6, inhalation 0.1 mg/kg per day): 338.44%
- Percent increase in TGFβ2 with respect to the control group (lung tissue, Group 7, inhalation 0.2 mg/kg per day): 198.92%
- Percent increase in TGFβ2 with respect to the control group (lung tissue, Group 8, inhalation 0.4 mg/kg per day): 125.88%
- Percent increase in TGFβ2 with respect to the control group (nasal cavity tissue, Group 1, oral 10 mg/kg per day): 1,838.85%
- Percent increase in TGFβ2 with respect to the control group (nasal cavity tissue, Group 2, oral 40 mg/kg per day): 1,469.70%
- Percent increase in TGFβ2 with respect to the control group (nasal cavity tissue, Group 3, oral 80 mg/kg per day): 1,290.84%
- Percent increase in TGFβ2 with respect to the control group (nasal cavity tissue, Group 4, oral 100 mg/kg per day): 1,151.85%
- Percent increase in TGFβ2 with respect to the control group (nasal cavity tissue, Group 5, inhalation 0.05 mg/kg per day): 1,451.21%
- Percent increase in TGFβ2 with respect to the control group (nasal cavity tissue, Group 6, inhalation 0.1 mg/kg per day): 825.63%
- Percent increase in TGFβ2 with respect to the control group (nasal cavity tissue, Group 7, inhalation 0.2 mg/kg per day): 252.52%
- Percent increase in TGFβ2 with respect to the control group (nasal cavity tissue, Group 8, inhalation 0.4 mg/kg per day): 136.09%
- Percent increase in TGFβ2 with respect to the control group (pharyngeal tissue, Group 1, oral 10 mg/kg per day): 1,575.67%
- Percent increase in TGFβ2 with respect to the control group (pharyngeal tissue, Group 2, oral 40 mg/kg per day): 1,235.45%
- Percent increase in TGFβ2 with respect to the control group (pharyngeal tissue, Group 3, oral 80 mg/kg per day): 980.65%
- Percent increase in TGFβ2 with respect to the control group (pharyngeal tissue, Group 4, oral 100 mg/kg per day): 780.54%
- Percent increase in TGFβ2 with respect to the control group (pharyngeal tissue, Group 5, inhalation 0.05 mg/kg per day): 1,202.46%
- Percent increase in TGFβ2 with respect to the control group (pharyngeal tissue, Group 6, inhalation 0.1 mg/kg per day): 725.63%
- Percent increase in TGFβ2 with respect to the control group (pharyngeal tissue, Group 7, inhalation 0.2 mg/kg per day): 252.52%
- Percent increase in TGFβ2 with respect to the control group (pharyngeal tissue, Group 8, inhalation 0.4 mg/kg per day): 136.09%
